{"source": "patent US20250127813A1", "about": "“COMBINATION DRUG” (OTSUKA PHARMACEUTICAL CO., LTD., priority 2021, published 2025)", "test_system": "NALM6-luc2", "description": "6-week-old NOG mice produced by In-Vivo Science Co., Ltd., were obtained, and tumor cells were intravenously transplanted into the mice at 7 weeks of age to prepare tumor-bearing mice. The day before the transplantation, busulfex (BSF) was intraperitoneally administered at 20 mg/kg. During the breeding period, the mice were housed with 5 mice per group and bred in a P2A breeding room set to a temperature of 24° C. (actual measurement: 19.7 to 25.0° C.), humidity of 50% (actual measurement: 38.6 to 58.5%), and illumination of 12 hours/day (8:00 a.m. to 8:00 p.m.). During the breeding period, the mice were allowed free access to radiation-sterilized solid feed for mice (CL-2, produced by Clea Japan, Inc.) and autoclave-sterilized tap water placed in a water bottle.\nCD19 CAR-T cells were intravenously administered once according to the group constitution on the same day as grouping. The IAP antagonist also started to be administered on the same day as grouping and was orally or intravenously administered according to the group constitution table.\nThe evaluation period was set to 3 to 4 weeks. Grouping and pharmacological evaluation were performed based on tumor luminescence values as determined by IVIS (trademark). Luminescence value measurement by IVIS (trademark) and body weight measurement were performed twice a week.\nFor NALM6-luc2, after resuspension, a portion of the cell suspension was taken, dead cells were stained with AOPI Staining Solution, and the number of viable cells was counted with a blood cell measuring device. A cell suspension was prepared by diluting the cells with RPMI 1640 to 1×10^7 cells/mL, based on the measurement results of viable cell count of the cells. Similarly, in a low tumor volume system, a cell suspension was prepared by diluting the cells with serum-free RPMI 1640 to achieve a concentration of 1×10^6 cells/mL.\nAfter the mice were retained using a retainer, a cell suspension was transplanted at 1×10^6 cells/0.1 mL/body using a 27G Myjector (1 mL, produced by Terumo Corporation) to the tail vein of each mouse with no anesthesia. In the low tumor volume system, a cell suspension at 1×10^5 cells/0.1 mL/body was transplanted.\nIn accordance with the dosing regimen shown in FIG. 6, NALM6-luc2 was transplanted the day after treating the […] with busulfex. On the third day after the transplantation, luminescence values were measured using the IVIS (trademark) Lumina X5 In-Vivo imaging system (produced by PerkinElmer, Co., Ltd.). Using the luminous values as an indicator and using SAS software R9.4 (produced by SAS Institute Japan), the mice were divided into groups of 5 mice each by the stratified random sampling method.\n1) A suspension of CD19 CAR-T cells was administered to the tail vein at the time of grouping. For the dosage, the number of viable CD19 CAR-T cells was counted and a cell suspension prepared according to the group constitution table was administered once at 0.1 mL/body. For the administration, a Myjector syringe with a 27G needle was used.\n5) Birinapant was intraperitoneally administered at a dose of 10 mL/kg according to the group composition table. Tolinapant, LCL161, and AT406 were orally administered at a dose of 10 mL/kg according to the group composition table using a sonde in the same manner. For intraperitoneal administration, an insulin syringe with a 26G needle was used in place of the sonde. For oral administration, a needle was used in place of the sonde to administer each drug.\nVivoGlo™-luciferin (produced by Promega) was dissolved in D-PBS(−) to achieve a concentration of 30 mg/mL and then cryopreserved at −20° C. under light-shielded conditions. On the day of measurement, dissolved VivoGlo™-luciferin was diluted with an equivalent amount of D-PBS(−) and stored at room temperature under light-shielded conditions until use for testing. Based on the body weight measured in advance, VivoGlo™-luciferin was intraperitoneally administered in a volume of 10 mL/kg.", "key": {"[1]": {"settings": "LCL161 30 mg/kg qw po + CD19 CAR-T 1×10^5 cells/body iv"}}, "note": "“Also recorded” adds a separate entry of the source."}
{"molecule": "CN[C@@H](C)C(=O)N[C@H]1CN(C(=O)CC(C)C)CC[C@H]2CC[C@@H](C(=O)NC(c3ccccc3)c3ccccc3)N2C1=O", "note": "[AT406, reference compound]", "values": [{"measurement": "effect of AT406 + 1×10^5 cells CD19 CAR-T compared with 1×10^6 cells CD19 CAR-T alone", "setting": "AT406 100 mg/kg qd po + CD19 CAR-T 1×10^5 cells/body iv", "value": "an effect equivalent to the effect achieved by 1×10^6 cells of CD19 CAR-T alone was observed on day 14 and thereafter"}, {"measurement": "combination effect of AT406 and CD19 CAR-T", "setting": "AT406 100 mg/kg qd po + CD19 CAR-T 1×10^5 cells/body iv, 100 mg/kg", "value": "a combination effect was observed on day 10 and thereafter; also recorded: showed a combination effect with CD19 CAR-T; also recorded: a combination effect profile similar to that of tolinapant"}, {"measurement": "efficacy of AT406 administered alone", "setting": "AT406 alone, 100 mg/kg, daily oral administration", "value": "showed no efficacy"}]}
{"molecule": "CC[C@H](NC(=O)[C@H](C)NC)C(=O)N1C[C@@H](O)C[C@H]1Cc1c(-c2[nH]c3cc(F)ccc3c2C[C@@H]2C[C@H](O)CN2C(=O)[C@H](CC)NC(=O)[C@H](C)NC)[nH]c2cc(F)ccc12", "note": "[Birinapant, reference compound]", "values": [{"measurement": "combination effect of birinapant and CD19 CAR-T compared to CD19 CAR-T alone", "setting": "birinapant 12 mg/kg q3-4d ip + CD19 CAR-T 1×10^5 cells/body iv", "value": "did not increase antitumor effects"}, {"measurement": "efficacy of birinapant administered alone", "setting": "birinapant alone, 12 mg/kg, intraperitoneal administration twice a week", "value": "showed no efficacy"}]}
{"molecule": "CN[C@@H](C)C(=O)N[C@H](C(=O)N1CCC[C@H]1c1nc(C(=O)c2ccc(F)cc2)cs1)C1CCCCC1", "note": "[LCL161, reference compound]", "values": [{"measurement": "death of mice under LCL161 alone", "setting": "LCL161 30 mg/kg orally twice a week", "value": "at least half of the mice died"}, {"measurement": "effect of LCL161 + 1×10^5 cells CD19 CAR-T compared with 1×10^6 cells CD19 CAR-T alone", "setting": "[1]", "value": "an effect equivalent to the effect achieved by using 1×10^6 cells of CD19 CAR-T alone was observed on day 14 and thereafter"}, {"measurement": "highest efficacy of combined use of LCL161 compared with combined use of tolinapant", "setting": "[1]", "value": "lower than the efficacy achieved by the combined use of tolinapant"}, {"measurement": "combination effect of LCL161 and CD19 CAR-T", "setting": "LCL161 30 mg/kg qw po + CD19 CAR-T 1×10^5 cells/body iv, 30 mg/kg", "value": "a significant combination effect was observed on day 7 and thereafter; also recorded: showed a combination effect with CD19 CAR-T"}, {"measurement": "toxicity of LCL161 (death, weight loss) in the combination test", "setting": "LCL161 30 mg/kg qw po, combination test with CD19 CAR-T, 30 mg/kg", "value": "highly toxic; also recorded: at least half of the animals died due to LCL161; also recorded: showed such toxicity as to confirm weight loss and death"}, {"measurement": "efficacy of LCL161 administered alone", "setting": "LCL161 alone, 30 mg/kg orally twice a week", "value": "no effects were exhibited"}]}
